The source of these data is patent publication US20240059703A1 (AMGEN INC., priority 2021, published 2024).

A value given as a limit tells only on which side of the number the result lay.

Test [1] has as its system A549 (human lung carcinoma) cells. In words: Cell Viability Assay (CellTiter-Glo), A549. Conditions: Homo sapiens, A549, 72 h. Type of test: cell-based. The procedure, abridged: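 Luminescent ATP read-out (CellTiter-Glo) after 72 h compound treatment of cells seeded overnight at 1.67E+04 cells/mL in RPMI 1640, 10% FBS; signal relative to DMSO, IC50 by 4-parameter logistic model.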

In test [2] the test system is MIA PaCa-2 (human pancreatic carcinoma) cells. In words: Cell Viability Assay (CellTiter-Glo), MIA PaCa-2. The class given is cell-based. The method, then: Serially-diluted compound or DMSO was added to the cells, and plates were incubated at 37° C., 5% CO2 for 72 h. Cell viability was measured using a CellTiter-Glo® Luminescent Cell Viability Assay kit (Promega) according to the manufacturer's protocol. The luminescence signal of treated samples was normalized to DMSO control, and data were analyzed using a 4-parameter logistic model to calculate IC50 values.

The next test deals with KRAS G12C (Homo sapiens (Human), UniProt P01116, C118A/G12C). The test can be described thus: 2 h coupled exchange assay. The class given is biochemical. The conditions noted are these: Avg 2 h Coupled exchange IC50, 2 h compound pre-incubation. The method, then:
The term “2 h coupled exchange assay” or “20 h coupled exchange assay” as used herein refers to the assay described in the Section entitled “BIOLOGICAL EVALUATION.”

[3] abbreviates: SOS-mediated nucleotide exchange.

Chain of KRAS G12C (P01116 other isoform, or with tags, fused parts or gaps G12C/C118A): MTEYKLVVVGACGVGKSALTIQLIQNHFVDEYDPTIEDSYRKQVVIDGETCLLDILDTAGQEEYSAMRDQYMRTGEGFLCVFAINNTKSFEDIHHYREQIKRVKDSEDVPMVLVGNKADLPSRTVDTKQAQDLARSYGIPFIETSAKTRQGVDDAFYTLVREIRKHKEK

`C=CC(=O)N1CC2(CCN(c3nc4c(c(-c5c(C)ccc6[nH]ncc56)c3C#N)CC(C)(C)C4)C2C)C1` [Example 13-52, 6,6-dimethyl-4-(5-methyl-1H-indazol-4-yl)-2-((5R)-5-methyl-2-(2-propenoyl)-2,6-diazaspiro[3.4]octan-6-yl)-6,7-dihydro-5H-cyclopenta[b]pyridine-3-carbonitrile|6,6-dimethyl-4-(5-methyl-1H-indazol-4-yl)-2-((5S)-5-methyl-2-(2-propenoyl)-2,6-diazaspiro[3.4]octan-6-yl)-6,7-dihydro-5H-cyclopenta[b]pyridine-3-carbonitrile]: the IC50 in test [1] was above 5000 nM; in test [2] (Homo sapiens, MIA PaCa-2, 72 h) it was 231 nM; against KRAS G12C (setting [3]), 43 nM.

`C=CC(=O)N1CC2(CCN(c3nc4ccccc4c(-c4c(C)c(Cl)cc5[nH]ncc45)c3C#N)C2)C1` [Example 14-18, 4-(6-chloro-5-methyl-1H-indazol-4-yl)-2-(2-(2-propenoyl)-2,6-diazaspiro[3.4]octan-6-yl)-3-quinolinecarbonitrile]: the IC50 in test [1] was above 5000 nM; in test [2] (Homo sapiens, MIA PaCa-2, 72 h), 324 nM; at KRAS G12C, 43 nM.

As to `C=CC(=O)N1CC2(CCN(c3nc4cc(-c5scnc5CO)cnc4c(-c4ccccc4F)c3C#N)C2)C1` [Example 19-10, 4-(2-fluorophenyl)-7-(4-(hydroxymethyl)-1,3-thiazol-5-yl)-2-(2-(2-propenoyl)-2,6-diazaspiro[3.4]octan-6-yl)-1,5-naphthyridine-3-carbonitrile], the IC50 amounted to 15300 nM in test [1]; 1130 nM in test [2] (Homo sapiens, MIA PaCa-2, 72 h); 113 nM against KRAS G12C.

In the case of `C=CC(=O)N1CC2(CCN(c3nc4c(c(-c5c(O)cccc5F)c3C#N)CCC(c3scnc3C)=C4)C2)C1` (single isomer, unassigned) [Example 23-50, (P)-4-(2-fluoro-6-hydroxyphenyl)-7-(4-methyl-1,3-thiazol-5-yl)-2-(2-(2-propenoyl)-2,6-diazaspiro[3.4]octan-6-yl)-5,6-dihydro-3-quinolinecarbonitrile], the results for the IC50 (in test [1]; in test [2] (72 h); against KRAS G12C) were above 5000 nM, 1190 nM and 38 nM, respectively.

With `C=CC(=O)N1CC2(CCN(c3nc4c(c(-c5cccc6cc(O)ccc56)c3C)CCN(C(C)COC)C4)C2)C1` [Example 18-8, 1-(6-(4-(6-hydroxy-1-naphthalenyl)-7-((2R)-1-methoxy-2-propanyl)-3-methyl-5,6,7,8-tetrahydro-1,7-naphthyridin-2-yl)-2,6-diazaspiro[3.4]octan-2-yl)-2-propen-1-one|1-(6-(4-(6-hydroxy-1-naphthalenyl)-7-((2S)-1-methoxy-2-propanyl)-3-methyl-5,6,7,8-tetrahydro-1,7-naphthyridin-2-yl)-2,6-diazaspiro[3.4]octan-2-yl)-2-propen-1-one], the IC50 in test [1] was above 5000 nM; in test [2] (Homo sapiens, MIA PaCa-2, 72 h) it was 170 nM; on KRAS G12C, 47 nM.

On to `C=CC(=O)N1CC2(CCN(c3nc4c(c(-c5cc(O)cc6ccccc56)c3C#N)C[C@H]3C[C@@H]4C3(C)C)C2)C1` (single isomer, unassigned) [Example 13-129], for which the half-maximal inhibitory concentration (IC50) in test [1] was above 5000 nM; in test [2] (Homo sapiens, MIA PaCa-2, 72 h), 21 nM; against KRAS G12C (setting [3]), 13 nM.

As to `C=CC(=O)N1CC2(CCN(c3nc4c(c(-c5c(C)ccc6c(Cl)c[nH]c56)c3C#N)COC(C)(C)C4)C2)C1` [Example 12-20, 4-(3-chloro-6-methyl-1H-indol-7-yl)-7,7-dimethyl-2-(2-(2-propenoyl)-2,6-diazaspiro[3.4]octan-6-yl)-7,8-dihydro-5H-pyrano[4,3-b]pyridine-3-carbonitrile], the IC50 in test [1] is above 5000 nM; in test [2] (Homo sapiens, MIA PaCa-2, 72 h), 2570 nM; against KRAS G12C (setting [3]), 105 nM.

On to `C=CC(=O)N1CC2(CCN(c3nc4c(c(-c5c(C)cc(F)c6[nH]ncc56)c3C#N)CCC(C)(C)C4)C2)C1` [Example 13-146, 4-(7-fluoro-5-methyl-1H-indazol-4-yl)-7,7-dimethyl-2-(2-(2-propenoyl)-2,6-diazaspiro[3.4]octan-6-yl)-5,6,7,8-tetrahydro-3-quinolinecarbonitrile], for which the IC50 was above 5000 nM in test [1]; 71 nM in test [2] (Homo sapiens, MIA PaCa-2, 72 h); 29 nM on KRAS G12C (setting [3]).

Turning to `Cc1ccc2[nH]ncc2c1-c1c(C#N)c(N2CCC3(CN(C(=O)/C=C/C(F)F)C3)C2)nc2c1CCC(C)(C)C2` [Example 13-8, 2-(2-((2E)-4,4-difluoro-2-butenoyl)-2,6-diazaspiro[3.4]octan-6-yl)-7,7-dimethyl-4-(5-methyl-1H-indazol-4-yl)-5,6,7,8-tetrahydro-3-quinolinecarbonitrile], the IC50 in test [1] was 3370 nM; in test [2] (Homo sapiens, MIA PaCa-2, 72 h), 218 nM; at KRAS G12C (setting [3]), 44 nM.

Turning to `C=CC(=O)N1CC2(CCN(c3nc4c(F)cccc4c(-c4c(C)ccc5[nH]ncc45)c3C#N)CC2(F)F)C1` [Example 1-43, 2-(5,5-difluoro-2-(2-propenoyl)-2,7-diazaspiro[3.5]nonan-7-yl)-8-fluoro-4-(5-methyl-1H-indazol-4-yl)-3-quinolinecarbonitrile], the IC50 in test [1] stood at 6250 nM; in test [2] (Homo sapiens, MIA PaCa-2, 72 h), 2160 nM; at KRAS G12C (setting [3]) it was 858 nM.

For `C=CC(=O)N1CC2(CCN(c3nc4cc(-c5scnc5C)ccc4c(-c4ccccc4C)c3C#N)C2)C1` [Example 19-2, 4-(2-methylphenyl)-7-(4-methyl-1,3-thiazol-5-yl)-2-(2-(2-propenoyl)-2,6-diazaspiro[3.4]octan-6-yl)-3-quinolinecarbonitrile], the concentration for half-maximal inhibition (IC50) in test [1] is above 5000 nM; in test [2] (Homo sapiens, MIA PaCa-2, 72 h) it was 1450 nM; on KRAS G12C, 126 nM.

Take `C=CC(=O)N1CC2(CCN(c3cc4c(c(-c5c(C)c(Cl)cc6cnn(C)c56)c3C#N)OCCC4)[C@H]2C)C1` [Example 2-107, 8-(5-chloro-1,6-dimethyl-1H-indazol-7-yl)-6-((5S)-5-methyl-2-(2-propenoyl)-2,6-diazaspiro[3.4]octan-6-yl)-3,4-dihydro-2H-chromene-7-carbonitrile]: the IC50 in test [1] was above 5000 nM; in test [2] (Homo sapiens, MIA PaCa-2, 72 h) it was 7 nM; at KRAS G12C (setting [3]) it was 17 nM.

Turning to `C=CC(=O)N1CC2(CCN(c3nc4c(c(-c5ccccc5C)c3C#N)CCC(c3scnc3C)=C4)C2)C1` (single isomer, unassigned) [Example 23-23, (M)-4-(2-methylphenyl)-7-(4-methyl-1,3-thiazol-5-yl)-2-(2-(2-propenoyl)-2,6-diazaspiro[3.4]octan-6-yl)-5,6-dihydro-3-quinolinecarbonitrile], the IC50 turned out to be 3370 nM in test [1]; 1080 nM in test [2] (Homo sapiens, MIA PaCa-2, 72 h); 92 nM against KRAS G12C.

For `C=CC(=O)N1CC2(CCN(c3nc4c(c(-c5cccc6cccc(Cl)c56)n3)CCCC4)C2)C1` [Example 1-9, 1-(6-(4-(8-chloro-1-naphthalenyl)-5,6,7,8-tetrahydro-2-quinazolinyl)-2,6-diazaspiro[3.4]octan-2-yl)-2-propen-1-one], the IC50 in test [1] is above 25000 nM; in test [2] (Homo sapiens, MIA PaCa-2, 72 h), 18100 nM; at KRAS G12C (setting [3]) it was 4580 nM.

For the compound `C=CC(=O)N1CC2(C1)CN(c1nc3c(c(-c4c(C)ccc5[nH]ncc45)c1C#N)CCC(C)C3)CC2(F)F` (stereo not drawn) [Example 2-5, 2-(8,8-difluoro-2-(2-propenoyl)-2,6-diazaspiro[3.4]octan-6-yl)-7-methyl-4-(5-methyl-1H-indazol-4-yl)-5,6,7,8-tetrahydro-3-quinolinecarbonitrile], the IC50 in test [1] was 6250 nM; in test [2] (Homo sapiens, MIA PaCa-2, 72 h) it was 943 nM; on KRAS G12C (setting [3]), 42 nM.

With `C=CC(=O)N1CC2(CCN(c3nc4c(c(-c5c(C)c(C)cc6cnn(C)c56)c3C#N)CCC(C)(C)C4)C2)C1` [Example 13-89, 7,7-dimethyl-2-(2-(2-propenoyl)-2,6-diazaspiro[3.4]octan-6-yl)-4-(1,5,6-trimethyl-1H-indazol-7-yl)-5,6,7,8-tetrahydro-3-quinolinecarbonitrile], the IC50 in test [1] was above 5000 nM; in test [2] (Homo sapiens, MIA PaCa-2, 72 h) it was 101 nM; at KRAS G12C (setting [3]), 35 nM.

With `C=CC(=O)N1CC2(CCN(c3cn4cc(-c5ccccc5)nc4c(-c4c(C)ccc5[nH]ncc45)c3C#N)C2)C1` [Example 1-38, 8-(5-methyl-1H-indazol-4-yl)-2-phenyl-6-(2-(2-propenoyl)-2,6-diazaspiro[3.4]octan-6-yl)imidazo[1,2-al]yridine-7-carbonitrile], the IC50 in test [1] was determined as 6250 nM; in test [2] (Homo sapiens, MIA PaCa-2, 72 h), 294 nM; on KRAS G12C (setting [3]), 103 nM.

In the case of `C=CC(=O)N1CC2(CCN(c3nc4c(c(-c5ccc(F)c6sc(N)nc56)c3C#N)COC(C)(C)C4)C2)C1` [Example 14-56, 4-(2-amino-7-fluoro-1,3-benzothiazol-4-yl)-7,7-dimethyl-2-(2-(2-propenoyl)-2,6-diazaspiro[3.4]octan-6-yl)-7,8-dihydro-5H-pyrano[4,3-b]pyridine-3-carbonitrile], the IC50 was above 5000 nM in test [1]; 135 nM in test [2] (Homo sapiens, MIA PaCa-2, 72 h); 93 nM against KRAS G12C.

For the compound `C=CC(=O)N1CC2(CCN(c3nc4c(c(-c5c(C)c(C)cc6cnn(C)c56)c3C)[C@@H]3CC[C@H]4C3)C2)C1` (atropisomer, axis not shown; (M)) [Example 2-111, (M)-1-(6-((1S,8R)-5-methyl-6-(1,5,6-trimethyl-1H-indazol-7-yl)-3-azatricyclo[6.2.1.0^2,7]undeca-2,4,6-trien-4-yl)-2,6-diazaspiro[3.4]octan-2-yl)-2-propen-1-one], the IC50 in test [1] was determined as 10900 nM; in test [2] (Homo sapiens, MIA PaCa-2, 72 h), 210 nM; against KRAS G12C (setting [3]), 3 nM.
